{"source": "patent US10538567B2", "about": "“Compounds as peptidic trigonal GLP1/glucagon/GIP receptor agonists” (priority 2016, dated 2020)", "note": "Numbered stars: 1 amine (or outer) side, 2 acyl side, 3 side chain; on linkers, the order of the positions; unused ones are H or OH. Square brackets hold non-standard residues; d marks the D form. Side chains are listed from the residue outwards. Peptide text beside a SMILES is read from it. * marks the point of attachment. γGlu = O=C(O)[C@H](CCC(=O)[*:2])N[*:1]; Stearoyl = CCCCCCCCCCCCCCCCCC(=O)*; Palmitoyl = CCCCCCCCCCCCCCCC(=O)*; AEEA = NCCOCCOCC(=O)O; Aib = CC(C)(N)C(=O)O", "data": [{"test_system": "not listed separately", "assay": "Thioflavin T (ThT) assay for physical stability (fibrillation)", "format": "physicochemical", "conditions": "3 mg/ml, 100 mM acetate pH 4.5 with m-cresol, 37° C. shaking", "from_the_text": "Low physical stability of a peptide solution may lead to amyloid fibril formation, which is observed as well-ordered, thread-like macromolecular structures in the sample, which eventually may lead to gel formation. Thioflavin T (ThT) is widely used to visualize and quantify the presence of misfolded protein aggregates. [Biancalana et al. (2010) Biochimica et Biophysica Acta. 1804 (7): 1405-1412]. […] Enzymol. 309, 274-284]. The time course for fibril formation often follows the characteristic shape of a sigmoidal curve and can be separated into three regions: a lag phase, a fast growth phase, and a plateau phase.\nThe typical fibril formation process starts with the lag phase in which the amount of partially folded peptide turned into fibrils is not significant enough to be detected. The lag-time corresponds to the time the critical mass of the nucleus is built. Afterwards, a drastic elongation phase follows and fibril concentration increases rapidly.\nInvestigations were carried out to determine fibrillation tendencies under stress conditions by shaking at 37° C. within Fluoroskan Ascent FL.\nFor the tests in Fluoroskan Ascent FL, 200 μL sample were placed into a 96 well mictrotiter plate PS, flat bottom, Greiner Fluotrac No. 655076. Plates were sealed with Scotch Tape (Quiagen). Samples were stressed by continuous cycles of 10 s shaking at 960 rpm and 50 s rest period at 37° C. The kinetic was monitored by measuring fluorescence intensity every 20 minutes.\nPeptides were diluted in a buffer system to a final concentration of 3 mg/ml. 20 μL of a 10.1 mM ThT solution in H2O were added to 2 mL of peptide solution to receive a final concentration of 100 μM ThT. For each sample eight replicates were tested.\nTht buffer system A) 100 mM Acetate pH 4.5 including m-cresol (100 mM Natriumacetat trihydrat, pH adjustment using 2N CH3COOH, 2.7 mg/mL m-cresol) Tht buffer system B) 100 mM citrate buffer pH 6.0\nLag time in hours in Thioflavin T (ThT) assay of peptide samples was determined in ThT buffer system A as described in Methods.", "units": {"Lag time before increase": "h"}, "values": [{"compound": "CCCCCCCCCCCCCCCC(=O)N[C@@H](CCC(=O)NCCCC[C@H](NC(=O)[C@H](CC(C)C)NC(=O)[C@H](CCCCN)NC(=O)[C@H](CO)NC(=O)[C@H](CC(C)C)NC(=O)[C@H](CC(=O)O)NC(=O)[C@H](CO)NC(=O)[C@@H](NC(=O)[C@H](Cc1ccccc1)NC(=O)[C@@H](NC(=O)CNC(=O)[C@H](Cc1c[nH]cn1)NC(=O)C(C)(C)NC(=O)[C@@H](N)Cc1c[nH]cn1)[C@@H](C)O)[C@@H](C)O)C(=O)N[C@@H](CCC(=O)O)C(=O)N[C@@H](CCC(=O)O)C(=O)N[C@@H](CCC(N)=O)C(=O)N[C@@H](CCCNC(=N)N)C(=O)N[C@@H](CCC(N)=O)C(=O)NC(C)(C)C(=O)N[C@@H](CCC(=O)O)C(=O)N[C@@H](Cc1ccccc1)C(=O)N[C@H](C(=O)N[C@@H](CCC(=O)O)C(=O)N[C@@H](Cc1c[nH]c2ccccc12)C(=O)N[C@@H](CC(C)C)C(=O)N[C@@H](CCCCN)C(=O)N[C@@H](C)C(=O)NCC(=O)NCC(=O)N1CCC[C@H]1C(=O)N1CCC[C@H]1C(=O)N[C@@H](CO)C(=O)NC(C)(C)C(=O)N[C@@H](CCCCN)C(=O)N1CCC[C@H]1C(=O)N1CCC[C@H]1C(=O)N1CCC[C@H]1C(=O)N[C@@H](CCCCN)C(N)=O)[C@@H](C)CC)C(=O)O", "note": "[SEQ ID NO: 18, H-Aib-H-G-T-F-T-S-D-L-S-K-L-K[gGlu-Palm]-E-E-Q-R-Q-Aib-E-F-I-E-W-L-K-A-G-G-P-P-S-Aib-K-P-P-P-K-NH2]", "Lag time before increase": ">45"}, {"compound": "CCCCCCCCCCCCCCCCCC(=O)N[C@@H](CCC(=O)NCCCC[C@H](NC(=O)[C@H](CC(C)C)NC(=O)[C@H](CCCCN)NC(=O)[C@H](CO)NC(=O)[C@H](CC(C)C)NC(=O)[C@H](CC(=O)O)NC(=O)[C@H](CO)NC(=O)[C@@H](NC(=O)[C@H](Cc1ccccc1)NC(=O)[C@@H](NC(=O)CNC(=O)[C@H](Cc1c[nH]cn1)NC(=O)C(C)(C)NC(=O)[C@@H](N)Cc1c[nH]cn1)[C@@H](C)O)[C@@H](C)O)C(=O)N[C@@H](CCC(=O)O)C(=O)N[C@@H](CCC(=O)O)C(=O)N[C@@H](CCC(N)=O)C(=O)N[C@@H](CCCNC(=N)N)C(=O)N[C@@H](CCC(N)=O)C(=O)NC(C)(C)C(=O)N[C@@H](CCC(=O)O)C(=O)N[C@@H](Cc1ccccc1)C(=O)N[C@H](C(=O)N[C@@H](CCC(=O)O)C(=O)N[C@@H](Cc1c[nH]c2ccccc12)C(=O)N[C@@H](CC(C)C)C(=O)N[C@@H](CCCCN)C(=O)N[C@@H](C)C(=O)NCC(=O)NCC(=O)N1CCC[C@H]1C(=O)N1CCC[C@H]1C(=O)N[C@@H](CO)C(=O)NC(C)(C)C(=O)N[C@@H](CCCCN)C(=O)N1CCC[C@H]1C(=O)N1CCC[C@H]1C(=O)N1CCC[C@H]1C(=O)N[C@@H](CCCCN)C(N)=O)[C@@H](C)CC)C(=O)O", "note": "[SEQ ID NO: 19, H-Aib-H-G-T-F-T-S-D-L-S-K-L-K[gGlu-Stea]-E-E-Q-R-Q-Aib-E-F-I-E-W-L-K-A-G-G-P-P-S-Aib-K-P-P-P-K-NH2] (H-H[Aib]HGTFTSDLSKLK([γGlu-Stearoyl])EEQRQ[Aib]EFIEWLKAGGPPS[Aib]KPPPK-NH2)", "Lag time before increase": ">45"}]}, {"test_system": "female diabetic db/db mice", "assay": "Acute effects after s.c. treatment on blood glucose in non-fasting female diabetic db/db mice", "format": "in vivo", "conditions": "single 30 μg/kg s.c.", "procedure": "Female healthy, lean BKS.Cg-(lean)/OlaHsd and diabetes-prone, obese BKS.Cg-+Lepr^db/+Lepr^db/OlaHsd mice were ordered group housed from Envigo RMS Inc., shipped group housed and remained group housed in shoebox caging with wood chip bedding until day 15 of the predose phase. At the study start mice were approximately 12 weeks old.\nMice were housed under vivarium conditions including a 12 h light/dark cycle (light phase 04:00 AM-4:00 PM), room temperatures between 23-26° C. and a relative humidity between 30-70%. All animals had free access to water and Purina Fomulab Diet 5008.\nOn predose day 9 blood glucose and body mass (approximately between 08:00-10:00 AM) as well as HbA1c measurements were performed. On day 15 of the predose phase animals were assigned to treatment groups (n=8) and to new cages to match mean HbA1c and body masses between all db/db groups. An age-matched lean group was included in the study as a healthy, lean reference.\nPrior to day 1 of the dosing phase, the test article was diluted with Phosphate Buffered Saline (PBS, Gibco, without CaCl2 and MgCl2) to a concentration of 1 mg/mL and aliquots of this stock solution were stored at approximately ≤−60° C. On day 1 of the dosing phase the stock aliquot was thawed and the injected test article solution was prepared fresh by diluting it with PBS to achieve the desired concentration.\nOn Day 1 of the dosing phase db/db mice were either treated once with a s.c. injection of PBS-vehicle or 30 μg/kg test article. The lean reference group was treated once with a s.c. injection of PBS-vehicle. The dosing was initiated and completed between 08:00 and 10:00 AM. The applied volume was 5 ml/kg and the dose was adjusted to the most recent body mass recording of each individual.\nAnimals had unlimited access to water and feed during the experiment. On day 1 of the dosing phase approximately 5 μL of blood were collected via tail clips at minute −30 and 0 prior to any other inlife activities. At minute 0 mice received a s.c. dose of either PBS-vehicle or 30 μg/kg test article. Further blood samples were harvested at hour 0.25, 0.5, 1, 1.5, 2, 3, 4, 6, 8, and 24 post-dose. Glucose measurements were performed in whole blood using AlphaTRAK glucometers. If the glucose concentrations of two measurements differed by more than 20 mg/dL a third value was recorded. The Area Under the Curve (AUC) for blood glucose was calculated via the trapezoid method and for the duration of the 24 post-dose hours.\nIn the Figures data are depicted as means±SEM. […] A One Way Analysis of Variance and multiple comparisons (Dunnett's Method) were performed comparing the group of diabetic, obese db/db vehicle mice (n=8) with each diabetic, obese db/db test article treated mice (n=8). […] Non-diabetic, lean-vehicle group data are depicted in the Figures serving as a reference dataset for the non-obese, non-diabetic state.", "values": [{"compound": "H-Aib-H-G-T-F-T-S-D-L-S-K-L-K[gGlu-gGlu-AEEA-Palm]-E-E-Q-R-Q-Aib-E-F-I-E-W-L-K-A-G-G-P-P-S-Aib-K-P-P-P-K-NH2 (H-H[Aib]HGTFTSDLSKLK([γGlu-γGlu-AEEA-Palmitoyl])EEQRQ[Aib]EFIEWLKAGGPPS[Aib]KPPPK-NH2) [SEQ ID NO: 26]", "mean blood glucose concentration 24 hours post-dose relative to baseline": "at or close to baseline"}]}]}
